The source made the active and inactive calls.
Tests used:
[1] = HEp-2 cell cytotoxicity, dose response, cytotoxicity control for RSV inhibitor project, HTS (AID 2410); format: functional; settings: human respiratory syncytial virus
[2] = molecular target: T1, Heat shock factor protein 1 (Mus musculus, UniProt P38532); assay: inhibition of MG132-induced HSE-luciferase signal, confirmation, cell-based, NIH3T3, luminescence, dose retest (AID 2382); format: functional;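 note: NIH3T3 fibroblasts with HSF1-driven luciferase reporter stressed by proteasome inhibitor MG132; luminescence from HSF1-driven luciferase expression after 8 hours of MG132 stress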
T1 sequence (P38532 whole entry): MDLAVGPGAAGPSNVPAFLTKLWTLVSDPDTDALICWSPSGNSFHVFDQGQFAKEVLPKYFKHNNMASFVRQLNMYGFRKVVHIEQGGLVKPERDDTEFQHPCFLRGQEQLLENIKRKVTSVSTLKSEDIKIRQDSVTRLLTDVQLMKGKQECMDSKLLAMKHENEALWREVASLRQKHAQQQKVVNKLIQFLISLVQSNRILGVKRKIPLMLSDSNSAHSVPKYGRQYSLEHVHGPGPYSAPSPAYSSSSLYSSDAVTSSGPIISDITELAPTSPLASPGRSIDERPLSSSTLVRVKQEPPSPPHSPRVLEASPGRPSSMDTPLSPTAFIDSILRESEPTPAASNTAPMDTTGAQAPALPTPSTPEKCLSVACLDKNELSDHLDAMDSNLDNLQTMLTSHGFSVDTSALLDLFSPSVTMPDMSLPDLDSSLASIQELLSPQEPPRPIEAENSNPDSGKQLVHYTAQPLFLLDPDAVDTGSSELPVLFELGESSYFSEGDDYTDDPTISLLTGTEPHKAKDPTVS

Cytochrome P450 2C19 = Cytochrome P450 2C19 (Homo sapiens, UniProt P33261); assay: Cytochrome panel assay with activity outcomes. Panel member name: p450-cyp2c19 Compounds with AC50 equal or less than 10 uM are considered active; format: functional; settings: read-out: AC50
Cytochrome P450 3A4 = Cytochrome P450 3A4 (Homo sapiens, UniProt P08684);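 note: CYP3A4 tested as one member of a cytochrome P450 panel screen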
Cytochrome P450 2C9 = Cytochrome P450 2C9 (Homo sapiens, UniProt P11712)
[3] = NIH-3T3 fibroblast cytotoxicity, dose response, cytotoxicity control, cell-based, fluorescence, Alamar Blue, secondary assay (AID 2327); format: functional;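 note: NIH-3T3 mouse fibroblasts cultured with fluconazole at 8 µg/mL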
[4] = C. albicans growth with fluconazole, confirmation, fluorescence, retest (AID 2467); format: functional, cell-based
[5] = molecular target: T1, Heat shock factor protein 1; assay: HSF1 potentiators in luciferase reporter cells, confirmation, cell-based, NIH3T3, luminescence, dose retest (AID 435004); format: functional;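 note: stress induced by proteasome inhibitor MG132 added 30 min after compound; luciferase reporter driven by HSF1 response element in NIH3T3 cells; actives raise luminescence as potentiators of the MG132 stress response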
[6] = tested on: Streptococcus sp. 'group A'; assay: growth inhibition of control SK(-) GAS strain, dose response, counter-screen for streptokinase expression inhibitor project, luminescence, kanamycin, BacTiterGlo, confirmation (AID 1900); format: functional, organism-based
Streptokinase A = molecular target: T2, Streptokinase A (Streptococcus pyogenes serotype M1, UniProt P10520); assay: S. pyogenes streptokinase expression inhibitors, potency, dose response, plasminogen activation absorbance, OD405 (AID 1914); format: functional, Streptococcus pyogenes M1 GAS;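 note: secreted streptokinase activity via plasminogen activation per viability signal from cell pellet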
T2 sequence (P10520 whole entry): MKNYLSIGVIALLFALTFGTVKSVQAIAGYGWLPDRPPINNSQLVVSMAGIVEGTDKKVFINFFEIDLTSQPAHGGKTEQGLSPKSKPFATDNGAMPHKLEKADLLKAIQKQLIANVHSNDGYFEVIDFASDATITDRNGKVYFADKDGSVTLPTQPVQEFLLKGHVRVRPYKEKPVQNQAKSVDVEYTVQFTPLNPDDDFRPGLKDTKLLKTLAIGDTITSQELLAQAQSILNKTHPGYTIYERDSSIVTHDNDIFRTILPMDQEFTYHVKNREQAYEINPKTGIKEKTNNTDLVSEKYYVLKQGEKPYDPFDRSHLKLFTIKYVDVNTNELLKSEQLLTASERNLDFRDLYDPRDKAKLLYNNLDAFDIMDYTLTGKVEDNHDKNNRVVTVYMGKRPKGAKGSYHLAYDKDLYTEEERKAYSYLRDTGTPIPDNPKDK

Streptococcus = assay: Group A Streptococcus viability loss, dose response, counter-screen for streptokinase expression inhibitor project, luminescence, BacTiterGlo (AID 1915); format: functional, organism-based;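 note: potency for reduction of bacterial viability or growth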
[7] = Shn3 3'UTR reporter inhibitors, dose response, cell-based, Clone20 osteoblasts, firefly luciferase, cherry-picked (AID 624132); format: functional;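 note: firefly luciferase luminescence from reporter carrying the Shn3 3'UTR in osteoblasts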
[8] = HepG2 cell cytotoxicity, dose response, cytotoxicity control for Shn3 inhibitor project, CellTiter-Glo, cherry-picked (AID 624134); format: functional, cell-based
[9] = control 3'UTR Renilla luciferase suppression, dose response, counter-screen for Shn3 inhibitor project, cell-based, Clone20-Shn3RL, cherry-picked (AID 624133); format: functional
[10] = inhibitors of intracellular T. cruzi replication, confirmation, NIH3T3 host cells, beta-gal luminescence (AID 2044); format: functional, cell-based;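 note: intracellular parasites grown in NIH/3T3 mouse fibroblasts as host cells; luminescent beta-galactosidase reporter signal from transgenic T. cruzi replicating inside host cells; inhibitors lower the luminescence signal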
[11] = cytotoxicity toward NIH3T3 fibroblasts, dose response, counter-screen, cell-based, ATP luminescence, mouse fibroblasts (AID 2010); format: functional;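 note: cells exposed to compound for about 90 hours before reading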
[12] = Luminescence Cell-Based Dose Retest to Confirm Inhibitors of Cancer Stem Cells. [Related pubchem assays (depositor defined):AID2717, AID2721]; format: functional; settings: Homo sapiens

Chain of Cytochrome P450 2C9 (P11712 whole entry): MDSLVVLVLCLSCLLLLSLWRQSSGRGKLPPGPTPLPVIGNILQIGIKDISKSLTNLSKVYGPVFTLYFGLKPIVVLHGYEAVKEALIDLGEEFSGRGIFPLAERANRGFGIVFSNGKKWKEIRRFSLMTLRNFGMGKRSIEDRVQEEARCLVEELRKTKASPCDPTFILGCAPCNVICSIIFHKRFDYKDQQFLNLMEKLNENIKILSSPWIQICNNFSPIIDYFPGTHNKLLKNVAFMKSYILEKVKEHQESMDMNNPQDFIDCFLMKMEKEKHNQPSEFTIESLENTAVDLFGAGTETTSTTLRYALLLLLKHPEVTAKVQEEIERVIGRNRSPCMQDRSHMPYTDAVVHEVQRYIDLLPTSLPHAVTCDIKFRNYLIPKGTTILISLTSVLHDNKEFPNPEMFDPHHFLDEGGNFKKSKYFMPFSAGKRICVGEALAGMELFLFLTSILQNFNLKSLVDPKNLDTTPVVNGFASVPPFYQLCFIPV
Chain of Cytochrome P450 2C19 (P33261 whole entry): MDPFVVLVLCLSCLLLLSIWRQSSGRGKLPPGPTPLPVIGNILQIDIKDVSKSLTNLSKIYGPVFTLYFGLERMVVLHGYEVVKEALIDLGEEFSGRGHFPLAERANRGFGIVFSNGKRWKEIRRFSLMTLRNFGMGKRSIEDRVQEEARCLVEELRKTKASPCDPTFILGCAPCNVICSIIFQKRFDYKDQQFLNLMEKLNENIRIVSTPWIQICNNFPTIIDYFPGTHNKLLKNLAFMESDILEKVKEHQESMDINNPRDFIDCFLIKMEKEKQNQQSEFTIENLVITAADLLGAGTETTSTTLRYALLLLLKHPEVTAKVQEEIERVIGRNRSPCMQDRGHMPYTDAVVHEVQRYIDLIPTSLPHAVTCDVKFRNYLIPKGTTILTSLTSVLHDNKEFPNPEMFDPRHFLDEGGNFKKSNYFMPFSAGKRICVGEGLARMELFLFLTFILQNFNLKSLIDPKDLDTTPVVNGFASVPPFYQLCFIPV
Chain of Cytochrome P450 3A4 (P08684 whole entry): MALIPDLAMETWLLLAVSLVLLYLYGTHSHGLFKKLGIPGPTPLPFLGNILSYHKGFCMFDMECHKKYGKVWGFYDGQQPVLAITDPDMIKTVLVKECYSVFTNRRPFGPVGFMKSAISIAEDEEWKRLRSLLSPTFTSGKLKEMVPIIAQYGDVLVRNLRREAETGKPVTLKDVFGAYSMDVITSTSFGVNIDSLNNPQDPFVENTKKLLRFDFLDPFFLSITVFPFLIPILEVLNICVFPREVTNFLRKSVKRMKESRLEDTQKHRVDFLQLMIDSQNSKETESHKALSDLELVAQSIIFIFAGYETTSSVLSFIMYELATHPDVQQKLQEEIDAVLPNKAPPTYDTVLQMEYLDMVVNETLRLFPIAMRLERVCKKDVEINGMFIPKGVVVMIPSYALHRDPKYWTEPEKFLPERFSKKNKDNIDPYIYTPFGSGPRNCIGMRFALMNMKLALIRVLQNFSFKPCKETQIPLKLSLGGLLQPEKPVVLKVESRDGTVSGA

Q: With `Cc1nc(SCC(=O)NCC2CCCO2)c2cc(-c3ccccc3)sc2n1` (centres undefined) as the compound, how does the CC50 [1] read?
A: 20.3 µM (active)

Q: Which EC50 [2] does the source give for `Cc1cccc(NC2(C(F)(F)F)N=C(c3ccccc3)NC2=O)n1` (centres undefined) here?
A: 71.7 µM (active)

Q: What about the AC50 (Cytochrome P450 2C19) of the same compound?
A: 8.91 µM (inconclusive)

Q: And the AC50 (Cytochrome P450 3A4)?
A: 15.8 µM (inconclusive)

Q: What about the AC50 (Cytochrome P450 2C9) of the same compound?
A: 12.6 µM (inconclusive)

Q: Which EC50 [3] does the source give for `COc1cc(C(=O)OCc2cc(=O)c(O)co2)ccc1OC(F)F` here?
A: > 160 µM (inactive)

Q: And the EC50 [4]?
A: > 38 µM (not active)

Q: With `CCN(CC)C(S)=Nc1ccc(Cl)c(Cl)c1` as the compound, how does the EC50 [5] read?
A: > 260 µM (inactive)

Q: For `COCCCN1C(=O)c2[nH]nc(-c3ccccc3O)c2C1c1cccc(Cl)c1` (centres undefined), which EC50 [5] is on record?
A: 59.7 µM (active)

Q: What does the source list for `CNc1ccc(OC)cc1-n1cnc(-c2ccc([N+](=O)[O-])cc2)c1`?
A: EC50 [3]: > 150 µM (inactive); EC50 [4]: > 38 µM (not active)

Q: For `Cc1cc(-c2cc(C(=O)O)c3ccccc3n2)c(C)s1`, which EC50 [3] is on record?
A: > 160 µM (inactive)

Q: What about the EC50 [4] of the same compound?
A: 3.94 µM (active)

Q: With `O=C(Cc1ccccc1)NCCS(=O)(=O)N1CCN(c2ccccc2)CC1` as the compound, how does the EC50 [6] read?
A: > 150 µM (not active)

Q: What about the EC50 (Streptokinase A) of the same compound?
A: > 150 µM (not active)

Q: What about the EC50 (Streptococcus) of the same compound?
A: > 150 µM (not active)

Q: With `O=C(C1CCC(CNS(=O)(=O)c2cccs2)CC1)N1CCN(c2ccc(Cl)cc2)CC1` (centres undefined) as the compound, how does the AC50 [7] read?
A: 1.61 µM (active)

Q: What about the AC50 [8] of the same compound?
A: 2.76 µM (active)

Q: And the AC50 [9]?
A: 16 µM (active)

Q: Which EC50 [2] does the source give for `Cc1ccc(N2C(=O)NC(NS(=O)(=O)c3ccccc3)(C(F)(F)F)C2=O)cc1` (centres undefined) here?
A: > 195 µM (not active)

Q: Which CC50 [1] does the source give for `CCOC(=O)C1=C(c2ccccc2)N=C(S)NC1c1cc([N+](=O)[O-])ccc1OC` (centres undefined) here?
A: > 50 µM (active)

Q: Which EC50 [2] does the source give for `CC1CC1C(=O)OCC(=O)NCc1ccc(Cl)cc1Cl` (centres undefined) here?
A: > 195 µM (not active)

Q: With `CCc1nnc(NC(=O)Cn2ccc(C(F)(F)F)n2)s1` as the compound, how does the EC50 [3] read?
A: > 150 µM (inactive)

Q: And the EC50 [4]?
A: > 38 µM (not active)

Q: Which EC50 [5] does the source give for `O=C(c1ccc2nccnc2c1)N1CCCC(Nc2ccc(F)c(F)c2)C1` (centres undefined) here?
A: > 260 µM (inactive)

Q: Which results are given for `CCN(CC)CCN(C(=O)CCS(=O)(=O)c1ccccc1)c1nc2cc(C)cc(C)c2s1`?
A: EC50 [6]: > 150 µM (not active); EC50 (Streptokinase A): > 150 µM (not active); EC50 [10]: 0.697 µM (active); EC50 [11]: > 30 µM (not active); EC50 (Streptococcus): > 150 µM (not active)

Q: Which EC50 [6] does the source give for `CNC(=O)/C(C#N)=C\c1cc(C)n(-c2ccc(N3CCOCC3)cc2)c1C` here?
A: 30.4 µM (active)

Q: What about the EC50 (Streptokinase A) of the same compound?
A: > 150 µM (not active)

Q: What about the EC50 (Streptococcus) of the same compound?
A: 98.2 µM (active)

Q: For `Cc1ccc(Cn2ccc(=O)c(OCc3c(Cl)cccc3Cl)c2C)cc1`, which EC50 [6] is on record?
A: 6.66 µM (active)

Q: What about the EC50 (Streptokinase A) of the same compound?
A: 13.7 µM (active)

Q: And the EC50 (Streptococcus)?
A: > 150 µM (not active)

Q: And the AC50 [7]?
A: 6.11 µM (active)

Q: And the AC50 [8]?
A: 60.6 µM (active)

Q: And the AC50 [9]?
A: 6.57 µM (active)

Q: For `CCC(C(=O)OCC(=O)Nc1cc(Cl)ccc1Cl)c1ccccc1` (centres undefined), which EC50 [2] is on record?
A: > 195 µM (not active)

Q: Which results are given for `Cc1ccc(NNC(=O)c2cccs2)cc1Cl`?
A: EC50 [3]: 29.6 µM (active); EC50 [4]: 1.62 µM (active); AC50 [12]: 1.96 µM (active); EC50 [5]: > 260 µM (inactive)

Q: For `Cn1c(CO)cnc1SCC(=O)c1ccc(Cl)cc1`, which EC50 [5] is on record?
A: > 260 µM (inactive)

Q: For `Cc1cc(-c2ccc(NC(=O)[C@@H]3CCCC[C@@H]3C(=O)O)c(C)c2)ccc1NC(=O)[C@@H]1CCCC[C@@H]1C(=O)O`, which CC50 [1] is on record?
A: 17.9 µM (active)

Q: Which EC50 [2] does the source give for `O=C(COC(=O)CNC(=O)c1ccccc1F)Nc1cccnc1Cl` here?
A: > 195 µM (not active)

Q: With `Cc1ccc(CN2CN(S(=O)(=O)c3cccs3)c3nc4ccccc4nc32)cc1` as the compound, how does the EC50 [6] read?
A: 56 µM (active)

Q: What about the EC50 (Streptokinase A) of the same compound?
A: > 150 µM (not active)

Q: What about the EC50 (Streptococcus) of the same compound?
A: 63.7 µM (active)

Q: Which EC50 [5] does the source give for `CCc1cccc(NC(=O)c2cccc(S(=O)(=O)N3CCN(C)CC3)c2)c1` here?
A: > 260 µM (inactive)

Q: Which results are given for `COc1ccc(S(=O)(=O)N2CCOC2CNC(=O)C(=O)NCc2ccccc2Cl)cc1` (centres undefined)?
A: EC50 [6]: > 150 µM (not active); EC50 (Streptokinase A): > 150 µM (not active); EC50 (Streptococcus): > 150 µM (not active)

— ChEMBL document CHEMBL1201862, “PubChem BioAssay data set” (2004)
